Data taken from patent publication US11667645B2, “Granzyme B directed imaging and therapy” (CytoSite Biopharma Inc., priority 2018, dated 2023).

Target: Granzyme B (human lymphocytes) (Homo sapiens (Human), UniProt P10144)
Assay: human Granzyme B biochemical assay
Settings: Granzyme B (human lymphocytes) 5 nM, substrate Ac-IETD-AFC 200 μM, Cpd incubation with enzyme 30 mins, 22° C., read time 60 mins; read-out: IC50
Text: The compounds of Formula I-VIII described above can be tested using the human Granzyme B biochemical assay provided below.
Materials: • 1. Granzyme B (human lymphocytes) Enzyme: Enzo Lifesciences, Cat #ALX-200-602-0010 • 2. Substrate (Ac-IETD-AFC): Enzo Lifesciences, Cat #ALX-260-110-M010 • 3. Standard inhibitor (Compound 20-Isomer3): Synthesized internally in TCG • 4. Dimethyl sulfoxide (DMSO): Sigma-Aldrich, Cat #41639 • 5. HEPES: Gibco, Cat #15630-080 • 6. Calcium chloride: Sigma-Aldrich, Cat #C-5080 • 7. Distilled water: Gibco, Cat #15230-162 • 8. Bovine serum albumin (BSA): Sigma-Aldrich, Cat #A3059 • 9. Black, clear bottom PDL plate (384 wells): Greiner bio-one, Cat #781946 • 10. Polypropylene plate (384 wells): Corning, Cat #3657 Assay Buffer Composition:
Compound Preparation: • 1. DMSO is added to the respective compound vial to make 10 mM Compound stock solution, which is stored at −20° C. • 2. 10 mM Compound stock solution is thawed and 1 mM DMSO stock solution is prepared by adding 45 μl of DMSO to 5 μl of 10 mM compound stock solution. • 3. 1 mM DMSO stock solution is serially diluted (3.16 fold) by adding 10 μl of 1 mM DMSO stock to 21.6 μl of DMSO and mixed well. 10 μl of the resulting solution is then added to 21.6 μl of DMSO and mixed well. This process is continued to create 11 dilution points for the assay standard inhibitor and 8 dilution points for test compounds in 384 well polypropylene plate. • 4. 2 μl of each dilution are dispensed in assay ready plate. • 5. Each well is then diluted 25 fold by adding 48 μl of assay buffer to 2 μl of compound in assay ready plate to make Compound working stock. Enzyme Preparation: • 1. Supplied Granzyme B (human lymphocytes) enzyme is reconstituted to 1 mg/ml (about 31.25 μM) and 1 μl aliquots are kept in −80° C. • 2. 1 μl aliquot is diluted to 625 nM by adding 49 μl of assay buffer containing 0.1% BSA and gently mixed. • 3. 10 nM enzyme working stock is prepared by adding assay buffer containing 0.1% BSA. Substrate Preparation: • 1. Supplied substrate (Ac-IETD-AFC) is reconstituted by adding DMSO to make 10 mM stock, aliquoted and stored in −80° C. • 2. 4 mM substrate mid stock is prepared by adding DMSO. • 3. Substrate working stock i.e. 800 μM is prepared by adding assay buffer. Assay Protocol: • 1. 10 μl of serially diluted Compound working stock (start dose 40 μM) is added from assay ready plate to assay plate according to the plate map. • 2. Positive control (40 μM of standard inhibitor) and negative control (4% DMSO buffer) are added to the respective wells. • 3. 20 μl of Enzyme working stock is added to assay plate and gently mixed. • 4. The plate is incubated at 22° C. for 30 mins and spun at 130 g for 1 minute. • 5. After incubation, 10 μl of Substrate working stock is added to respective wells and mixed (Assay plate is maintained in dark after substrate addition). • 6. The plate is incubated at 22° C. for 60 mins and spun at 130 g for 1 minute. • 7. Fluorescence read (RFU) (Ex: 400 nm/Em: 505 nm) is taken after 60 mins in EnVision Multimode plate reader. Final Assay Concentration:
Data Analysis: • 1. The RFU read is analyzed to calculate percent inhibition by normalizing with positive and negative controls taken as 100% and 0% effect respectively in Microsoft excel. • 2. Graph is generated by putting the analyzed data in GraphPad prism 5.0 software to get IC50 value for each compound.

Chain of Granzyme B (human lymphocytes) (P10144 21-247): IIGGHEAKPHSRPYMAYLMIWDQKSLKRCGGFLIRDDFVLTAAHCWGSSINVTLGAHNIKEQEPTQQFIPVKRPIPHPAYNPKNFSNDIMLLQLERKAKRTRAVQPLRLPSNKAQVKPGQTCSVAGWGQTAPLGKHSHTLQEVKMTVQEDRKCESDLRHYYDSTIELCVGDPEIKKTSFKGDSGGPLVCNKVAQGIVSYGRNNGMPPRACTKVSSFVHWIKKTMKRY

Structure (SMILES) | IC50 [µM]
CC(=O)N[C@H](C(=O)N[C@H]1CCc2cccc3c2N(C1=O)[C@H](C(=O)NCc1c[nH]nn1)C3)c1ccccc1 [Compound C031, (2S,5S)-5-((S)-2-Acetylamino-2-phenyl-acetylamino)-4-oxo-1,2,4,5,6,7-hexahydro-azepino[3,2,1-hi]indole-2-carboxylic acid (1H-[1,2,3]triazol-4-ylmethyl)-amide] | 1 to 5
CC(=O)N[C@@H](Cc1ccc(O)cc1)C(=O)N[C@H]1CCc2cccc3c2N(C1=O)[C@H](C(=O)NCc1c[nH]nn1)C3 [Compound C032, (2S,5S)-5-[(S)-2-Acetylamino-3-(4-hydroxy-phenyl)-propionylamino]-4-oxo-1,2,4,5,6,7-hexahydro-azepino[3,2,1-hi]indole-2-carboxylic acid(1H-[1,2,3]triazol-4-ylmethyl)amide] | 1 to 5
CC(=O)N[C@@H](Cc1ccc(F)cc1)C(=O)N[C@H]1CCc2cccc3c2N(C1=O)[C@H](C(=O)NCc1c[nH]nn1)C3 [Compound C033, (2S,5S)-5-[(S)-2-Acetylamino-3-(4-fluoro-phenyl)-propionylamino]-4-oxo-1,2,4,5,6,7-hexahydro-azepino[3,2,1-hi]indole-2-carboxylic acid (1H-[1,2,3]triazol-4-ylmethyl)-amide] | 1 to 5
O=C(CNC(=O)c1ccccc1)N[C@H]1CCc2cccc3c2N(C1=O)[C@H](C(=O)NCc1c[nH]nn1)C3 [Compound C034, (2S,5S)-5-(2-Benzoylamino-acetylamino)-4-oxo-1,2,4,5,6,7-hexahydro-azepino[3,2,1-hi]indole-2-carboxylic acid (1H-[1,2,3]triazol-4-ylmethyl)-amide] | > 5
C[C@H](NC(=O)c1ccccc1)C(=O)N[C@H]1CCc2cccc3c2N(C1=O)[C@H](C(=O)NCc1c[nH]nn1)C3 [Compound C035, (2S,5S)-5-((S)-2-Benzoylamino-propionylamino)-4-oxo-1,2,4,5,6,7-hexahydro-azepino[3,2,1-hi]indole-2-carboxylic acid (1H-[1,2,3]triazol-4-ylmethyl)-amide] | > 5
O=C(N[C@@H](Cc1ccccc1)C(=O)N[C@H]1CCc2cccc3c2N(C1=O)[C@H](C(=O)NCc1c[nH]nn1)C3)c1ccccc1 [Compound C037] | 1 to 5
CC(C)C[C@H](NC(=O)c1ccccc1)C(=O)N[C@H]1CCc2cccc3c2N(C1=O)[C@H](C(=O)NCc1c[nH]nn1)C3 [Compound C038, (2S,5S)-5-((S)-2-Benzoylamino-4-methyl-pentanoylamino)-4-oxo-1,2,4,5,6,7-hexahydro-azepino[3,2,1-hi]indole-2-carboxylic acid (1H-[1,2,3]triazol-4-ylmethyl)-amide] | 0.301 to 1
O=C(N[C@@H](CO)C(=O)N[C@H]1CCc2cccc3c2N(C1=O)[C@H](C(=O)NCc1c[nH]nn1)C3)c1ccccc1 [Compound C040, (2S,5S)-5-((S)-2-Benzoylamino-3-hydroxy-propionylamino)-4-oxo-1,2,4,5,6,7-hexahydro-azepino[3,2,1-hi]indole-2-carboxylic acid (1H-[1,2,3]triazol-4-ylmethyl)-amide] | > 5
O=C(O)CC[C@H](NC(=O)c1ccccc1)C(=O)N[C@H]1CCc2cccc3c2N(C1=O)[C@H](C(=O)NCc1c[nH]nn1)C3 [Compound C041, (S)-4-Benzoylamino-4-{(2S,5S)-4-oxo-2-[(1H-[1,2,3]triazol-4-ylmethyl)-carbamoyl]-1,2,4,5,6,7-hexahydro-azepino[3,2,1-hi]indol-5-ylcarbamoyl}-butyric acid] | > 5
O=C(N[C@@H](Cc1ccc(O)cc1)C(=O)N[C@H]1CCc2cccc3c2N(C1=O)[C@H](C(=O)NCc1c[nH]nn1)C3)c1ccccc1 [Compound C042, (2S,5S)-5-[(S)-2-Benzoylamino-3-(4-hydroxy-phenyl)-propionylamino]-4-oxo,2,4,5,6,7-hexahydro-azepino[3,2,1-hi]indole-2-carboxylic acid (1H-[1,2,3]triazol-4-ylmethyl)-amide] | > 5
O=C(N[C@@H](Cc1ccc(F)cc1)C(=O)N[C@H]1CCc2cccc3c2N(C1=O)[C@H](C(=O)NCc1c[nH]nn1)C3)c1ccccc1 [Compound C043, (2S,5S)-5-[(S)-2-Benzoylamino-3-(4-fluoro-phenyl)-propionylamino]-4-oxo-1,2,4,5,6,7-hexahydro-azepino[3,2,1-hi]indole-2-carboxylic acid (1H-[1,2,3]triazol-4-ylmethyl)-amide] | > 5
CC(C)(NC(=O)Cc1csc2ccccc12)C(=O)N[C@H]1CCc2cccc3c2N(C1=O)[C@H](C(=O)NCc1c[nH]nn1)C3 [Compound C044, (2S,5S)-5-[2-(2-Benzo[b]thiophen-3-yl-acetylamino)-2-methyl-propionylamino]-4-oxo-1,2,4,5,6,7-hexahydro-azepino[3,2,1-hi]indole-2-carboxylic acid (1H-[1,2,3]triazol-4-ylmethyl)-amide] | > 5
CC[C@H](NC(=O)c1ccccc1)C(=O)N[C@H]1CCc2cccc3c2N(C1=O)[C@H](C(=O)NCc1c[nH]nn1)C3 [Compound C045, (2S,5S)-5-((S)-2-Benzoylamino-butyrylamino)-4-oxo-1,2,4,5,6,7-hexahydro-azepino[3,2,1-hi]indole-2-carboxylic acid (1H-[1,2,3]triazol-4ylmethyl)-amide] | 1 to 5
CC(C)(C)[C@H](NC(=O)c1ccccc1)C(=O)N[C@H]1CCc2cccc3c2N(C1=O)[C@H](C(=O)NCc1c[nH]nn1)C3 [Compound C046, (2S,5S)-5-((S)-2-Benzoylamino-3,3-dimethyl-butyrylamino)-4-oxo-1,2,4,5,6,7-hexahydro-azepino[3,2,1-hi]indole-2-carboxylic acid (1H-[1,2,3]triazol-4-ylmethyl)-amide] | 0.301 to 1
CC(C)[C@H](NC(=O)c1ccc(F)cc1)C(=O)N[C@H]1CCc2cccc3c2N(C1=O)[C@H](C(=O)NCc1c[nH]nn1)C3 [Compound C047, (2S,5S)-5-[(S)-2-(4-Fluoro-benzoylamino)-3-methyl-butyrylamino]-4-oxo-1,2,4,5,6,7-hexahydro-azepino[3,2,1-hi]indole-2-carboxylic acid (1H-[1,2,3]triazol-4-ylmethyl)-amide] | 0.301 to 1
CC(C)[C@H](NC(=O)c1cccc(F)c1)C(=O)N[C@H]1CCc2cccc3c2N(C1=O)[C@H](C(=O)NCc1c[nH]nn1)C3 [Compound C048, (2S,5S)-5-[(S)-2-(3-Fluoro-benzoylamino)-3-methyl-butyrylamino]-4-oxo-1,2,4,5,6,7-hexahydro-azepino[3,2,1-hi]indole-2-carboxylic acid (1H-[1,2,3]triazol-4-ylmethyl)-amide] | 0.001 to 0.3
CC(C)[C@H](NC(=O)c1ccccc1F)C(=O)N[C@H]1CCc2cccc3c2N(C1=O)[C@H](C(=O)NCc1c[nH]nn1)C3 [Compound C049, (2S,5S)-5-[(S)-2-(2-Fluoro-benzoylamino)-3-methyl-butyrylamino]-4-oxo-1,2,4,5,6,7-hexahydro-azepino[3,2,1-hi]indole-2-carboxylic acid (1H-[1,2,3]triazol-4-ylmethyl)-amide] | 0.301 to 1
Cc1ccccc1C(=O)N[C@H](C(=O)N[C@H]1CCc2cccc3c2N(C1=O)[C@H](C(=O)NCc1c[nH]nn1)C3)C(C)C [Compound C050, (2S,5S)-5-[(S)-3-Methyl-2-(2-methyl-benzoylamino)-butyrylamino]-4-oxo-1,2,4,5,6,7-hexahydro-azepino[3,2,1-hi]indole-2-carboxylic acid (1H-[1,2,3]triazol-4-ylmethyl)-amide] | 0.001 to 0.3
